“And” between values parts separate entries of the source, which are not always exact repeats. Equal values may be shown once.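 96-well plates; 48 h exposure; 5 concentrations. Endpoints by linear interpolation between flanking doses. Not reached: highest tested concentration assigned. GI50 marks 50% less growth. The concentration for full growth arrest is given as TGI.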
Assays:
Experiment in all cases: NCI tumour cell line growth inhibition, 48 h
A549 NSCLC = test system: A549 NSCLC
BT-549 breast = test system: BT-549 breast
CAKI-1 renal = test system: CAKI-1 renal
HCT-116 colon = test system: HCT-116 colon
HCT-15 colon = test system: HCT-15 colon
NCI-H460 lung = test system: NCI-H460 lung
OVCAR-8 ovarian = test system: OVCAR-8 ovarian
RPMI-8226 leukemia = test system: RPMI-8226 leukemia
SF-268 CNS = test system: SF-268 CNS
T-47D breast = test system: T-47D breast
TK-10 renal = test system: TK-10 renal

SMILES | TGI (A549 NSCLC) [µM] | TGI (BT-549 breast) | TGI (CAKI-1 renal) | TGI (HCT-116 colon) | TGI (HCT-15 colon) | TGI (NCI-H460 lung) | TGI (OVCAR-8 ovarian) | TGI (RPMI-8226 leukemia) | TGI (SF-268 CNS) | TGI (T-47D breast) | TGI (TK-10 renal) | GI50 (A549 NSCLC) | GI50 (TK-10 renal) | GI50 (BT-549 breast) | GI50 (CAKI-1 renal) | GI50 (HCT-116 colon) | GI50 (HCT-15 colon) | GI50 (NCI-H460 lung) | GI50 (OVCAR-8 ovarian) | GI50 (RPMI-8226 leukemia)
COC(=O)/C=C/[C@H]1[C@H](C)N1S(=O)(=O)c1ccc(C)cc1 (stereo partly drawn) | > 100 | > 100 µM | > 100 µM | > 100 µM | > 100 µM | > 100 µM | > 100 µM | > 100 µM | > 100 µM | > 100 µM | > 100 µM |  |  |  |  |  |  |  |  | 
Cc1csc(CP(=O)(OC(C)C)OC(C)C)n1 | > 100 | > 100 µM | > 100 µM | > 100 µM | > 100 µM | > 100 µM | > 100 µM | > 100 µM | > 100 µM | > 100 µM | > 100 µM |  |  |  |  |  |  |  |  | 
O=Cc1ccc(Oc2c3ccccc3nc3ccccc23)cc1 | 49 | 37.4 µM | 22.3 µM | 4.9 µM | 19.5 µM | 33.8 µM | 21 µM | 5.95 µM | 17.6 µM | 12.5 µM | 19.5 µM |  |  |  |  |  |  |  |  | 
CC(=O)Oc1ccc(C2SCc3nc4ccccc4n32)cc1 (stereo not drawn) | > 100 | > 53.3 µM | > 93.2 µM | > 100 µM | > 100 µM | > 100 µM | > 100 µM | > 100 µM | 70.8 µM | > 100 µM | > 100 µM |  |  |  |  |  |  |  |  | 
COc1ccc2oc(=O)c(-c3nc4ccccc4s3)cc2c1 | > 41.9 | > 100 µM | > 51.8 µM | 37.6 µM | > 100 µM | > 100 µM | 36.9 µM | > 100 µM | > 100 µM | > 100 µM | > 100 µM |  |  |  |  |  |  |  |  | 
COc1ccc(-c2c(C#N)c(N)n(C3OC(COC(C)=O)C(OC(C)=O)C(OC(C)=O)C3OC(C)=O)c(=S)c2C#N)cc1 (stereo not drawn) | > 100 | 89.3 µM and 72 µM | > 100 µM | > 100 µM | > 100 µM | > 100 µM | > 100 µM and 75.4 µM | > 100 µM and 68.8 µM | > 100 µM and 88.3 µM | > 100 µM and 46.5 µM | > 100 µM and 49.3 µM | 36.2 µM and > 100 µM | 50.5 µM and 21.9 µM |  |  |  |  |  |  | 
CNC(=S)c1nnsc1N | > 100 | > 100 µM | > 100 µM | > 100 µM | > 100 µM | 41.5 µM | > 100 µM | > 100 µM | > 100 µM | > 100 µM | > 100 µM |  |  |  |  |  |  |  |  | 
COC1=C2C[C@](OC)(C#CC=CC#CC2O)CC1(C)C (stereo partly drawn) | > 100 | > 100 µM | > 100 µM | > 100 µM | > 100 µM | > 100 µM | > 100 µM | > 100 µM | > 100 µM | > 100 µM | > 100 µM |  |  |  |  |  |  |  |  | 
CC1(C)C/C=C\CCC(O)C(O)CCC(C)(C)C1=O (stereo not drawn) | > 100 | > 100 µM | > 100 µM | > 100 µM | > 100 µM | > 100 µM | > 100 µM | > 100 µM | > 100 µM | > 100 µM | > 100 µM |  |  |  |  |  |  |  |  | 
O=C(Nc1ccccn1)c1cc2c(cc1Cl)Sc1nccn1S2(=O)=O | > 100 | > 100 µM | > 100 µM | > 100 µM | > 100 µM | > 100 µM | > 100 µM | > 100 µM | > 100 µM | 73.6 µM | > 100 µM |  |  |  |  |  |  |  |  | 
COc1ccc(/C=C2/C(=O)C(c3ccccc3)N(c3ccccc3)C2=O)cc1OC (stereo not drawn) | > 10 | > 10 µM | > 10 µM | > 10 µM | > 10 µM | > 10 µM | > 10 µM | > 10 µM | > 10 µM | > 10 µM | > 10 µM |  |  |  |  |  |  |  |  | 
CN1CCN2CCN(C)CCN(CC1)CC2 | > 100 | > 100 µM | > 100 µM | > 100 µM | > 100 µM | > 100 µM | > 100 µM | > 100 µM | > 100 µM | > 100 µM | > 100 µM |  |  |  |  |  |  |  |  | 
C[C@H](OC(=O)/C=C/c1ccc(O)c(O)c1)[C@H](C)OC(=O)/C=C/c1ccc(O)c(O)c1 | > 100 | 24.1 µM | > 100 µM | 23.3 µM | 25.9 µM | > 100 µM | 26.2 µM | > 100 µM | 34.5 µM | > 100 µM | 34.2 µM |  |  |  |  |  |  |  |  | 
C/C(=N\Nc1nc2ccccc2[nH]1)c1ccc2ccccc2n1 | 10.2 | > 100 µM | 1.54 µM | 7.48 µM | 35.2 µM | 10.4 µM | > 100 µM | 3.15 µM | 14.3 µM | 3.74 µM | 13.2 µM |  |  |  |  |  |  |  |  | 
Cc1ccc(S(=O)(=O)N/N=C2/C3CC4CCC2C4C3)cc1 (stereo not drawn) | > 100 | > 100 µM | > 100 µM | > 100 µM | > 100 µM | > 100 µM | > 100 µM | > 100 µM | > 100 µM | > 100 µM | > 100 µM |  |  |  |  |  |  |  |  | 
c1ccc2c[n+](Cc3ccnc4ccccc34)ccc2c1 | > 100 | > 100 µM | > 100 µM | > 100 µM | > 100 µM | > 100 µM | > 100 µM | > 100 µM | > 100 µM | > 100 µM | > 100 µM |  |  |  |  |  |  |  |  | 
O=C1CSC2(CC(/C=C/c3ccccc3[N+](=O)[O-])=NN2c2cccc(S(=O)(=O)O)c2)N1c1nc2ccccc2s1 (stereo not drawn) | 52.9 | 33.1 µM | > 75 µM | > 75 µM | 35 µM | 52.7 µM | 28.6 µM | 43.5 µM | 41.1 µM | 30.6 µM | 29.4 µM |  |  |  |  |  |  |  |  | 
CCOC1=NC(C(F)(F)F)(C(F)(F)F)N=C(/N=C(/N)N(C)C(C(C)C)P(=O)(OC(C)C)OC(C)C)O1 (stereo not drawn) | > 100 | > 100 µM | > 100 µM | > 100 µM | > 100 µM | > 100 µM | > 100 µM | > 100 µM | > 100 µM | > 100 µM | > 100 µM |  |  |  |  |  |  |  |  | 
COC(=O)CC(c1ccccc1)C(C#N)(OP1(=O)OC(c2ccccc2)C(C)N1C)c1ccccc1 (stereo not drawn) | > 100 | > 100 µM | > 100 µM | > 100 µM | > 100 µM | > 100 µM | > 100 µM | > 100 µM | > 100 µM | > 100 µM | > 100 µM |  |  |  |  |  |  |  |  | 
O=C1CCCC1C(O)(C(F)(F)Cl)C(F)(F)Cl (stereo not drawn) | > 10 | > 10 µM | > 10 µM | > 10 µM | > 10 µM | > 10 µM | > 10 µM | > 10 µM | > 10 µM | > 10 µM | > 10 µM |  |  |  |  |  |  |  |  | 
O=c1ccc2c(Cl)sc(Cl)c2[nH]1 | > 100 | > 100 µM | > 100 µM | > 100 µM | > 100 µM | > 100 µM | > 100 µM | > 100 µM | > 100 µM | > 100 µM | > 100 µM |  |  |  |  |  |  |  |  | 
COc1ccc(-c2nc3ccccc3c(=O)[nH]2)cc1OC | > 100 | > 100 µM | > 100 µM | > 100 µM | > 100 µM | > 100 µM | 67.5 µM | > 100 µM | 60 µM | > 100 µM |  |  |  |  |  |  |  |  |  | 
CCCCCC(=O)OC[n+]1ccc(-c2c(COC(=O)NC(C)C)c(COC(=O)NC(C)C)c3n2CCC3)cc1 | > 100 | > 100 µM | > 100 µM | > 100 µM | > 100 µM | > 100 µM | > 100 µM | > 100 µM | > 100 µM | > 100 µM | > 100 µM |  |  |  |  |  |  |  |  | 
O=C1C=C(NCCc2ccc(O)cc2)C(=O)C=C1NCCc1ccc(O)cc1 | > 100 | > 100 µM | > 100 µM | > 100 µM | > 100 µM | > 100 µM | > 100 µM | > 100 µM | > 100 µM | > 100 µM | > 100 µM |  |  |  |  |  |  |  |  | 
COc1ccc([C@H]2C=C(c3cc(F)c(Cl)cc3Cl)N=c3s/c(=C\c4ccc(-c5ccc(Cl)cc5Cl)o4)c(=O)n32)cc1 | > 100 | > 100 µM | > 100 µM | > 100 µM | > 100 µM | > 100 µM | > 100 µM | > 100 µM | > 100 µM | > 100 µM | > 100 µM |  |  |  |  |  |  |  |  | 
COC(=O)/C=C/c1cc(OC)c2c(c1)C(C(=O)OC)C(c1ccc(O)c(OC)c1)O2 (stereo not drawn) | > 100 | > 42.3 µM and 18.9 µM and > 90.5 µM | 14.3 µM and 11.9 µM and > 74 µM | > 100 µM and > 46.7 µM and 19.7 µM | > 100 µM and > 53.7 µM and 56.6 µM | > 100 µM and > 47.9 µM and 27.8 µM | > 100 µM and > 72.2 µM and 21.6 µM | 13.6 µM and > 60.8 µM and 15.6 µM | > 100 µM | > 100 µM and 31.9 µM and > 57.6 µM | > 100 µM |  | 47.5 µM and 15.6 µM and 15.3 µM | 4.54 µM and 1.87 µM and 18.2 µM | 2.63 µM and 2.04 µM and 12.2 µM | 4.22 µM and 3.67 µM and 1.1 µM | 2.74 µM and 1.52 µM and 0.629 µM | 13.9 µM and 7.71 µM and 5.24 µM | 10.8 µM and 4.76 µM and 2.32 µM | 2.94 µM and 3.93 µM and 1.69 µM
COc1ccc(C2=Nn3c(C)nnc3S/C2=C\c2ccc(-c3ccc([N+](=O)[O-])cc3)o2)cc1 | 66.7 | 19 µM | 29.1 µM | 26.1 µM | 27.7 µM | 39.5 µM | 15.9 µM | 15.5 µM | 47.1 µM | > 100 µM | 34.3 µM |  |  |  |  |  |  |  |  | 
O=[N+]([O-])C(=C(\Cl)NCCO)/C(Cl)=C(/Cl)Br | 21.1 | 4.2 µM | 1.85 µM | 5.18 µM | 2.78 µM | 10.8 µM | 7.31 µM | 6.14 µM | 4.56 µM | 3.84 µM | 4.91 µM |  |  |  |  |  |  |  |  | 
CCOC(=O)C1=CN(Cc2ccccc2)C2ON=C(c3ccc(Cl)cc3)C2C1 (stereo not drawn) | > 59.6 | > 56.4 µM | > 85.1 µM | > 61.9 µM | > 47.2 µM | > 65 µM | > 67.4 µM | > 100 µM | > 66.3 µM | 15.2 µM | > 81.3 µM |  |  |  |  |  |  |  |  | 

From PubChem BioAssay (NCI)
